Literature values, collected in patent US20220073443A1, “CANNABINOID FORMULATIONS AND METHODS OF MAKING SAME” (BOTANECO INC., priority 2018, published 2022).

Conditions: consumed by smoking marihuana; average

CCCCCc1cc(O)c2c(c1)OC(C)(C)[C@@H]1CCC(C)=C[C@@H]21 [Δ^9-THC, Δ^9-tetrahydrocannabinol]
bioavailability of pulmonary-delivered Δ9-THC: ~30%
